In ChEMBL document CHEMBL1201862, “PubChem BioAssay data set” (2004):
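Interpolation was linear, between the two tested concentrations surrounding the appropriate level; five concentrations were tested over 48 hours in 96-well plates. GI50 marks 50% less growth.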 Active and inactive are the calls of the source. Rule as the data show it: active = GI50 up to about 1.1 µM and inactive = higher.

Columns and labels:
Assay in all cases: DTP human tumour cell line panel, 48 h
HCC 2998 = test system: HCC 2998
OVCAR-8 = test system: OVCAR-8
OVCAR-5 = test system: OVCAR-5
PC-3 = test system: PC-3
U-251 = test system: U-251
DU-145 = test system: DU-145
ACHN = test system: ACHN
IGROV-1 = test system: IGROV-1
HOP-62 = test system: HOP-62
MDA-MB-231 = test system: MDA-MB-231
NCI-H226 = test system: NCI-H226
MOLT-4 = test system: MOLT-4
MDA-N = test system: MDA-N
MCF7 = test system: MCF7
M14 = test system: M14
SR = test system: SR
NCI/ADR-RES = test system: NCI/ADR-RES
CAKI-1 = test system: CAKI-1
SK-MEL-28 = test system: SK-MEL-28

Row | Compound | GI50 (HCC 2998) | GI50 (OVCAR-8) | GI50 (OVCAR-5) | GI50 (PC-3) | GI50 (U-251) | GI50 (DU-145) | GI50 (ACHN) | GI50 (IGROV-1) | GI50 (HOP-62) | GI50 (MDA-MB-231) | GI50 (NCI-H226) | GI50 (MOLT-4) | GI50 (MDA-N) | GI50 (MCF7) | GI50 (M14) | GI50 (SR) | GI50 (NCI/ADR-RES) | GI50 (CAKI-1) | GI50 (SK-MEL-28)
1 | O=C(Cc1ccccc1)N/N=C1\C(=O)Nc2ccccc21 | > 100 µM (inactive) | > 100 µM (inactive) | > 100 µM (inactive) | 70.5 µM (inactive) | 61.1 µM (inactive) | > 100 µM (inactive) | > 100 µM (inactive) | > 100 µM (inactive) | > 100 µM (inactive) | 18.8 µM (inactive) | 71.9 µM (inactive) | > 100 µM (inactive) | > 100 µM (inactive) | 49.8 µM (inactive) | > 100 µM (inactive) | > 100 µM (inactive) | 52.4 µM (inactive) | – | –
2 | CC(=O)C(C(c1ccccc1)N1CCOCC1)N1CCOCC1 (stereo not drawn) | 20.3 µM (inactive) | > 100 µM (inactive) | > 100 µM (inactive) | > 100 µM (inactive) | > 100 µM (inactive) | > 100 µM (inactive) | > 100 µM (inactive) | > 100 µM (inactive) | > 100 µM (inactive) | > 100 µM (inactive) | > 100 µM (inactive) | > 100 µM (inactive) | > 100 µM (inactive) | > 100 µM (inactive) | > 100 µM (inactive) | 83.9 µM (inactive) | > 100 µM (inactive) | > 100 µM (inactive) | > 100 µM (inactive)
3 | O=c1cc(NNc2ccc3ccccc3c2)[nH]c(=S)[nH]1 | 24 µM (inactive) | 44.9 µM (inactive) | > 100 µM (inactive) | 19.8 µM (inactive) | 27 µM (inactive) | > 100 µM (inactive) | 31.6 µM (inactive) | 22.5 µM (inactive) | 27.4 µM (inactive) | 42.8 µM (inactive) | > 100 µM (inactive) | – | 45.6 µM (inactive) | 4.31 µM (inactive) | 33.2 µM (inactive) | 29.7 µM (inactive) | > 100 µM (inactive) | – | 49.9 µM (inactive)
4 | CC12CC3OC(=O)C1COC14OC5(C2C1=O)C(O)(CCC1C4CC2OC24CC=CC(=O)C14C)C(=O)OC35C (stereo not drawn) | 18.7 µM (inactive) | 43.8 µM (inactive) | 18.4 µM (inactive) | 20.3 µM (inactive) | 14.5 µM (inactive) | 14.6 µM (inactive) | 16.4 µM (inactive) | 18.4 µM (inactive) | 20.9 µM (inactive) | 18.5 µM (inactive) | – | 15.5 µM (inactive) | 12.4 µM (inactive) | 8.85 µM (inactive) | 17.2 µM (inactive) | 8.85 µM (inactive) | 38.1 µM (inactive) | 13 µM (inactive) | 8.47 µM (inactive)
5 | CC(C)NC(=O)OCc1c(COC(=O)NC(C)C)c(-c2ccc[n+](COC(=O)C(C)(C)C)c2)n2c1CCC2 | > 100 µM (inactive) | > 76.6 µM (inactive) | > 100 µM (inactive) | > 86.7 µM (inactive) | > 76.9 µM (inactive) | > 91.4 µM (inactive) | 38.8 µM (inactive) | > 80.7 µM (inactive) | > 71.1 µM (inactive) | > 100 µM (inactive) | > 91 µM (inactive) | 48.2 µM (inactive) | > 100 µM (inactive) | 57.5 µM (inactive) | > 84.1 µM (inactive) | > 70.8 µM (inactive) | > 73.1 µM (inactive) | 27.6 µM (inactive) | > 100 µM (inactive)
6 | O=C1/C(=c2\s/c(=C\c3ccccc3)c(=O)n2-c2ccccc2)SC(=S)N1c1ccccc1 | 70.5 µM (inactive) | 82.6 µM (inactive) | > 100 µM (inactive) | 55 µM (inactive) | 23.4 µM (inactive) | 37.2 µM (inactive) | 22.3 µM (inactive) | 25 µM (inactive) | – | 20.5 µM (inactive) | 25.5 µM (inactive) | 45.4 µM (inactive) | 94.6 µM (inactive) | 53.5 µM (inactive) | > 100 µM (inactive) | 10.7 µM (inactive) | 28 µM (inactive) | 0.131 µM (active) | 63.1 µM (inactive)
7 | CC(=O)Oc1ccc2cc(-c3ccc(OC(C)=O)c(OC(C)=O)c3)c(=O)oc2c1 | > 100 µM (inactive) | > 100 µM (inactive) | > 100 µM (inactive) | 84.5 µM (inactive) | 67.1 µM (inactive) | 41.6 µM (inactive) | > 100 µM (inactive) | – | > 100 µM (inactive) | > 100 µM (inactive) | > 100 µM (inactive) | > 100 µM (inactive) | > 100 µM (inactive) | > 100 µM (inactive) | 74.8 µM (inactive) | 87.7 µM (inactive) | 40.7 µM (inactive) | – | 81.7 µM (inactive)
8 | O=C(/C=C/c1ccc2c(c1)OCO2)CC(=O)C(=O)c1c[nH]c2ccccc12 | 16.3 µM (inactive) | 37.1 µM (inactive) | 77.4 µM (inactive) | 37 µM (inactive) | 30.8 µM (inactive) | 42.9 µM (inactive) | 44.2 µM (inactive) | 47.8 µM (inactive) | 41.6 µM (inactive) | 39.4 µM (inactive) | – | 20.7 µM (inactive) | 27.9 µM (inactive) | 32.2 µM (inactive) | 63.2 µM (inactive) | 31.6 µM (inactive) | > 100 µM (inactive) | 39.5 µM (inactive) | > 100 µM (inactive)
